Reference: patent US10994016B2, “Graphene oxide mediated cellular delivery of gadolinium-labeled molecules” (Northwestern University, priority 2015, dated 2021)
Several values for one entry are separate records, joined by “and”; a condition that tells them apart may be missing. Equal values may be shown once.

How the values were obtained:
[1] = incubation concentration of 100 mM; cited from earlier work
[2] = Octanol-water partition coefficients; assay type: physicochemical; details: errors show SEM; Gd in each layer by ICP-MS
Method: Approximately 1 mg of each compound was dissolved in 1 mL of a 1:1 mixture of water/1-octanol. After shaking the sample tube vigorously for 30 s, the tube was placed on a rotator for gentle mixing over 6 h. The tube was then removed from the rotator and allowed to sit for 12 h to ensure complete separation of the aqueous and organic phases. […] Once separation was complete, 10 μL was removed from each layer to determine the concentration of Gd by ICP-MS. The partition coefficient was calculated from the following equation: log10P=log10(Co/Cw), where log10 P is the logarithm of the partition coefficient, Co is the concentration of Gd in the 1-octanol layer, and Cw is the concentration of Gd in the water layer.

HeLa cells = assay: Cellular delivery studies with and without GO co-incubation, HeLa; assay type: cell-based; details: for Gd content (fmol/cell): 188 μM Gd(III), 24 h, replicate values; for Gd content (fmol/cell), Outliers: values removed as outliers (Chauvenet's criterion, * experimenter judgment)
Method: ICP-MS Samples were prepared in 15-mL conical tubes by adding ACS reagent grade nitric acid (70%), followed by incubation at 70° C. overnight to allow for complete sample digestion. The effectiveness of this digestion protocol was previously validated for GO. After incubation, a multi-element internal standard (containing Bi, Ho, In, Li, Sc, Tb, and Y, Inorganic Ventures, Christiansburg, Va.) and milli-Q water (18.2 MΩ·cm) were added to produce a final sample of 3% (v/v) nitric acid and 5 ng/mL internal standard.
ICP-MS was performed on a computer-controlled (Plasmalab software) Thermo X series II ICP-MS (Thermo Fisher Scientific, Waltham, Mass., USA) operating in standard mode equipped with an ESI SC-2 autosampler (Omaha, Nebr., USA). Each sample was acquired using 1 survey run (10 sweeps) and 3 main (peak jumping) runs (100 sweeps). The isotopes selected for analysis were Gd with In and Ho isotopes selected as internal standards for data interpolation. Instrument performance is optimized daily through an autotune followed by verification via a performance report (passing manufacturer specifications). Instrument calibration was accomplished by preparing individual-element Gd standards (Inorganic Ventures, Christiansburg, Va., USA) using concentrations of 0.78125, 1.5625, 3.125, 6.25, 12.50, 25.00, 50.00, 100.0, and 200.0 ng/mL containing 3.0% nitric acid (v/v) and 5.0 ng/mL of multi-element internal standard.
Dulbecco's modified phosphate buffered saline (DPBS), media, and dissociation reagents were purchased from Life Technologies (Carlsbad, Calif.). CorningBrand® cell culture consumables (flasks, plates, etc.) and sera were purchased from VWR Scientific (Radnor, Pa.). HeLa cells (ATCC® CCL-2™) and KB cells (ATCC® CCL-17™) were purchased from the American Type Culture Collection (ATCC, Manassas, Va.) and cultured in phenol red-free minimum essential media (MEM) supplemented with 10% fetal bovine serum (FBS). Prior to all experiments, cells were plated and allowed to incubate for 24 hours before dosing. Cells were harvested with 0.25% TrypLE for 5 minutes at 37° C. in a 5.0% CO2 incubator. For sterilization, all Gd(III)-labeled molecules were filtered with 0.2 μm sterile filters prior to concentration determination and storage at 4° C. GO was used as prepared without further sterilization. […] Cells were grown in a humidified incubator operating at 37° C. and 5.0% CO2.
Cell counting was conducted using a Guava EasyCyte Mini Personal Cell Analyzer (EMD Millipore, Billerica, Mass.). After cell harvesting, an aliquot (50 μL) of the cell suspensions was mixed with Guava ViaCount reagent (150 μL) and allowed to stain at room temperature for at least 5 minutes. The dilution factor of 4 was determined based upon optimum machine performance (20-150 cells/μL). After vortexing for 10 sec, stained cells were counted using a Guava EasyCyte Mini Personal Cell Analyzer (PCA) using the ViaCount software module. For each sample, 1000 events were acquired. Gating of live/dead and cell/debris classifications were performed manually by the operator.
Cellular delivery studies were performed with HeLa and KB cells. HeLa and KB were plated at a cell density of approximately 25,000 and 50,000 cells per well, respectively, in a 24-well plate as counted by a hemocytometer. Stock solutions of 1-14 (1 mM), 150 nm GO (100 μg/mL), and 1500 nm GO (100 μg/mL) were prepared using sterile Milli-Q water. Prior to dosing, 80 μL ([…]) of each GO (150 nm and 1500 nm) and 80 μL (80 nmol) of each Gd(III)-labeled molecule (1-14) were mixed and allowed to adsorb for at least 15 minutes. 150 μL Gd(III)-GO solutions were added to 250 μL media to give a final concentration of 188 μM Gd and 18.8 μg/mL GO. Cells were incubated with the mixture of Gd(III)-labeled molecules and GO for […]. To harvest, cells were rinsed in-plate three times with 500 μL PBS and trypsinized using 100 μL 0.25% TrypLE. […]

[3] = +150 nm GO co-incubation, 18.8 μg/mL GO
[4] = +1500 nm GO co-incubation, 18.8 μg/mL GO
[5] = molecule alone, without GO, 24-well plate

Structure (SMILES) | Highest cellular labeling reported to date [1] | Water-Octanol LogP [2] | Gd content (fmol/cell) (HeLa cells; [3]) | Gd content (fmol/cell), Outliers (HeLa cells; +150 nm GO) | Gd content (fmol/cell) (HeLa cells; [4]) | Gd content (fmol/cell), Outliers (HeLa cells; +1500 nm GO) | Gd content (fmol/cell) (HeLa cells; [5])
CC(O)CN1CCN(CC(=O)[O-])CCN(CC(=O)[O-])CCN(CC(=O)[O-])CC1.[Gd+3] (stereo not drawn) [Molecule 13, [Gd(HP-DO3A)(H2O)]] | 31 fmol Gd/cell |  |  |  |  |  | 
CCCCc1cn(CC(O)CN2CCN(CC(=O)[O-])CCN(CC(=O)[O-])CCN(CC(=O)[O-])CC2)nn1.[Gd+3] (stereo not drawn) [Molecule 1] |  | −2.18 ± 0.02 | 0.63 fmol/cell (2×) and 0.44 fmol/cell and 0.58 fmol/cell and 0.57 fmol/cell (2×) and 0.76 fmol/cell | 1.11 fmol/cell and 1.24 fmol/cell | 0.59 fmol/cell and 0.58 fmol/cell and 0.39 fmol/cell and 0.77 fmol/cell and 0.86 fmol/cell and 0.76 fmol/cell and 0.64 fmol/cell | 1.18 fmol/cell and 1.45 fmol/cell | 0.62 fmol/cell and 0.67 fmol/cell and 0.36 fmol/cell and 0.63 fmol/cell and 0.40 fmol/cell
NCCCCCCCCCCCCN1CCN(CC(=O)[O-])CCN(CC(=O)[O-])CCN(CC(=O)[O-])CC1.[Gd+3] [Molecule 10] |  | −1.63 ± 0.04 | 45.53 fmol/cell and 50.10 fmol/cell and 48.08 fmol/cell |  | 14.47 fmol/cell and 26.93 fmol/cell and 18.26 fmol/cell |  | 3.88 fmol/cell and 5.08 fmol/cell and 4.54 fmol/cell
NCCCN1CCN(CC(=O)[O-])CCN(CC(=O)[O-])CCN(CC(=O)[O-])CC1.[Gd+3] [Molecule 8] |  | −3.86 ± 0.01 | 13.40 fmol/cell and 20.22 fmol/cell and 14.84 fmol/cell |  | 7.61 fmol/cell and 7.56 fmol/cell and 6.31 fmol/cell |  | 0.68 fmol/cell and 1.78 fmol/cell and 1.87 fmol/cell and 1.16 fmol/cell and 0.94 fmol/cell and 1.30 fmol/cell and 1.48 fmol/cell
CC(O)CN1CCN(CC(=O)[O-])CCN(CC(=O)[O-])CCN(CC(=O)[O-])CC1.[Gd+3] (stereo not drawn) [Molecule 13] |  | −3.59 ± 0.16 | 1.09 fmol/cell and 1.47 fmol/cell and 1.02 fmol/cell |  | 1.36 fmol/cell and 1.84 fmol/cell and 0.82 fmol/cell and 1.59 fmol/cell and 1.47 fmol/cell | 0.53* fmol/cell and 0.55* fmol/cell | 0.51 fmol/cell and 0.42 fmol/cell and 0.61 fmol/cell
O=C([O-])CN(CCN(CC(=O)[O-])CC(=O)[O-])CCN(CC(=O)[O-])CC(=O)[O-].[Gd+3] [Molecule 11] |  | −3.80 ± 0.29 | 2.36 fmol/cell and 2.49 fmol/cell and 4.37 fmol/cell and 4.24 fmol/cell and 5.87 fmol/cell and 2.95 fmol/cell and 2.73 fmol/cell and 2.85 fmol/cell |  | 5.16 fmol/cell and 5.75 fmol/cell and 4.01 fmol/cell and 3.75 fmol/cell and 3.78 fmol/cell and 3.36 fmol/cell |  | 0.34 fmol/cell and 0.30 fmol/cell and 0.54 fmol/cell and 0.82 fmol/cell and 0.51 fmol/cell and 0.72 fmol/cell and 0.61 fmol/cell (2×)
O=C([O-])CN1CCN(CC(=O)[O-])CCN(CC(O)Cn2cc(CCCc3ccccc3)nn2)CCN(CC(=O)[O-])CC1.[Gd+3] (stereo not drawn) [Molecule 6] |  | −1.26 ± 0.08 | 1.13 fmol/cell and 0.53 fmol/cell and 0.68 fmol/cell and 0.73 fmol/cell (2×) and 0.47 fmol/cell and 0.87 fmol/cell | 3.26 fmol/cell | 1.29 fmol/cell and 1.24 fmol/cell and 0.67 fmol/cell and 0.64 fmol/cell | 4.12 fmol/cell | 0.78 fmol/cell and 0.72 fmol/cell and 0.40 fmol/cell and 0.47 fmol/cell and 0.58 fmol/cell
